Measured values as given in article PMC12040169 (PLOS Biology, 2025).

Assay: in vitro
Details: human, hela cells, % viability

Structure (SMILES)	viability at 28.5 h, 10 µM
CCC(=O)NCCc1cc2ccc(C)cc2[nH]c1=O [CBK287434]	92.4%
COc1ccc(C(=O)Nc2cc(C)c3c(=O)oc4ccccc4c3n2)cc1 [CBK287435]	79.6%
Cc1cc(NC(=O)C2CCCC2)nc2c1c(=O)oc1ccccc12 [CBK287438]	93.2%
Cc1cc(NC(=O)C(C)(C)C)nc2c1c(=O)oc1ccccc12 [CBK287443]	78.7%
O=C(NCc1ccc2c(c1)OCO2)c1cnc2sccn2c1=O [CBK287446]	91%
Cc1ccc(NC(=O)c2cnc3sccn3c2=O)cc1 [CBK287448]	93.1%
O=C(Nc1ccc(F)c(F)c1)c1cnc2sccn2c1=O [CBK287450]	104%
Cc1cccc(NC(=O)c2cnc3scc(C)n3c2=O)c1 [CBK287453]	112%
Cc1csc2ncc(C(=O)Nc3ccccc3F)c(=O)n12 [CBK287455]	113%
Cc1csc2ncc(C(=O)Nc3ccccc3C(F)(F)F)c(=O)n12 [CBK287456]	86.4%
Cc1csc2ncc(C(=O)Nc3ccc(F)c(Cl)c3)c(=O)n12 [CBK287460]	107%
COc1ccc(OC)c(NC(=O)c2cnc3scc(C)n3c2=O)c1 [CBK287462]	90.5%
COc1cccc2sc(Nc3nc4c(s3)C(=O)CC(C)(C)C4)nc12 [CBK287467]	86%
COc1cccc2sc(Nc3nc(-c4cccs4)cs3)nc12 [CBK287469]	82.8%
COc1cccc2sc(Nc3nc(-c4cccnc4)cs3)nc12 [CBK287470]	98.5%
COc1cccc2sc(Nc3nc(C)c(C(C)=O)s3)nc12 [CBK287471]	109%
Fc1cccc2sc(Nc3nc(-c4cccs4)cs3)nc12 [CBK287476]	85.9%
CC1CCc2c(sc(Nc3nc4c(F)cccc4s3)c2C(N)=O)C1 (centres unmarked) [CBK287477]	102%
Fc1cccc2sc(Nc3nc(-c4ccccn4)cs3)nc12 [CBK287479]	108%
Fc1cccc2sc(Nc3nnc(-c4ccco4)o3)nc12 [CBK287480]	82.6%
COc1ccc2nc(Nc3nc4c(s3)C(=O)CC(C)(C)C4)sc2c1 [CBK287481]	90.5%
COc1ccc2nc(Nc3nc4ccc(S(C)(=O)=O)cc4s3)sc2c1 [CBK287484]	102%
Fc1ccc2nc(Nc3nnc(-c4ccco4)o3)sc2c1 [CBK287488]	94.5%

Structure (SMILES)	viability at 28.5 h, 10 µM
CC(=O)Nc1ccc2nc(Nc3nc4c(F)cc(F)cc4s3)sc2c1 [CBK287489]	107%
c1cncc(-c2csc(Nc3nc4cc5c(cc4s3)OCO5)n2)c1 [CBK287490]	87.2%
c1c2c(cc3sc(N4CCOCC4)nc13)OCO2 [CBK287494]	97.7%
c1ccc(N2CCN(c3nc4cc5c(cc4s3)OCO5)CC2)cc1 [CBK287495]	108%
c1c2c(cc3sc(N4CCCCC4)nc13)OCCO2 [CBK287497]	89.3%
c1ccc(N2CCN(c3nc4cc5c(cc4s3)OCCO5)CC2)cc1 [CBK287499]	93.6%
CCSc1nnc(Cc2cc(=O)[nH]c(=O)[nH]2)n1-c1ccc(F)cc1 [CBK287500]	85.2%
Cc1c(C(=O)Nc2ccccn2)sc2nc(-c3ccccc3)cn12 [CBK287501]	98.3%
Cc1ccc(Cn2cnc3c(nnn3-c3ccc(C)cc3)c2=O)cc1 [CBK287502]	102%
Cc1ccc(C(=O)Nc2cccc(-c3cn4cccnc4n3)c2)cc1 [CBK287503]	93.8%
Cc1c(-c2cccc(NC(=O)c3ccccc3)c2)nc2ncccn12 [CBK287504]	67.3%
Cc1cc2cc(CCNC(=O)C(=O)c3c[nH]c4ccccc34)c(O)nc2cc1C [CBK287511]	89.5%
O=C(CSc1ccc2nnc(-c3ccccc3)n2n1)NCc1ccco1 [CBK287514]	95.6%
O=C(CSc1ccc2nnc(-c3ccccc3)n2n1)NCC1CCCO1 (centres unmarked) [CBK287515]	96.6%
Cc1csc(NC(=O)CSc2ccc3nnc(-c4ccccc4)n3n2)n1 [CBK287517]	105%
Cc1cc(NC(=O)CSc2ccc3nnc(-c4ccccc4)n3n2)no1 [CBK287518]	94.8%
O=C(CSc1ccc2nnc(-c3ccc(F)cc3)n2n1)N1CCCC1 [CBK287519]	85.3%
O=C(CSc1ccc2nnc(-c3ccc(F)cc3)n2n1)N1CCCCC1 [CBK287520]	98.4%
O=C(CSc1ccc2nnc(-c3ccc(F)cc3)n2n1)N1CCOCC1 [CBK287521]	96.9%
O=C(CSc1ccc2nnc(-c3cccc(F)c3)n2n1)Nc1nccs1 [CBK287522]	85.8%
CCC(Sc1ccc2nnc(-c3ccc(C)cc3)n2n1)C(=O)O (centres unmarked) [CBK287524]	104%
COc1ccc(-c2nnc3ccc(SC(C)C)nn23)cc1OC [CBK287526]	101%
COc1ccc(-c2nnc3ccc(SCC(=O)N4CCCC4)nn23)cc1OC [CBK287527]	85.9%

Structure (SMILES)	viability at 28.5 h, 10 µM
COc1ccc(-c2nnc3ccc(SCc4ccccn4)nn23)cc1OC [CBK287528]	97.4%
O=C(Cn1cnc2c(cnn2-c2ccccc2)c1=O)NCc1ccco1 [CBK287531]	101%
Cc1ccc(-n2ncc3c(=O)n(CC(=O)Nc4cccc(C)c4)cnc32)cc1 [CBK287533]	103%
Cc1ccc(-n2ncc3c(=O)n(CC(=O)Nc4ccc(C)cc4C)cnc32)cc1 [CBK287535]	83.4%
O=C(Cn1cnc2c(cnn2-c2ccc(F)cc2)c1=O)Nc1ccc(F)cc1F [CBK287537]	89.3%
O=C(Cn1cnc2c(cnn2-c2ccc(F)cc2)c1=O)NCc1ccccc1 [CBK287538]	93.1%
NC(=O)c1nc(-c2ccccc2)nc2c1[nH]c(=O)n2-c1cccc(Cl)c1 [CBK287544]	104%
NC(=O)c1nc(-c2ccco2)nc2c1[nH]c(=O)n2-c1ccc(Cl)cc1 [CBK287545]	91.2%
COc1ccc(-n2c(=O)[nH]cc(C(=O)Nc3cc(C)ccc3OC)c2=O)cc1 [CBK287548]	107%
COc1ccc(OC)c(NC(=O)c2c[nH]c(=O)n(-c3ccc(F)cc3)c2=O)c1 [CBK287552]	99%
O=C(c1c[nH]c(=O)n(-c2ccc(F)cc2)c1=O)N1CCc2ccccc21 [CBK287554]	101%
COc1ccc(-n2c(=O)[nH]cc(C(=O)N3CCc4ccccc43)c2=O)cc1OC [CBK287555]	105%
Cc1nc2c(ccc3nc(NC(=O)c4ccccc4)sc32)s1 [CBK287560]	91.7%
O=C(Nc1nc(-c2ccncc2)cs1)c1sc2ccccc2c1Cl [CBK287562]	92.1%
COc1ccc(C(=O)Nc2nc(-c3nc4ccccc4s3)cs2)cc1 [CBK287563]	102%
O=C(Nc1nc(-c2cccnc2)cs1)c1cccc(N2C(=O)CCC2=O)c1 [CBK287564]	108%
CC1(C)CC(=O)c2sc(NC(=O)c3cccc(N4C(=O)CCC4=O)c3)nc2C1 [CBK287565]	111%
NC(=O)c1c(NC(=O)c2nc3ccccc3s2)sc2c1CCCCC2 [CBK287566]	96.5%
CSc1nc2ccc3nc(NC(C)=O)sc3c2s1 [CBK287567]	106%
CC(=O)Nc1ccccc1-c1nc2ccccc2o1 [CBK287568]	100%
O=C(Nc1nccs1)c1cc(=O)c2ccccc2o1 [CBK287570]	105%
COc1ccc2nc(NC(=O)c3ccc4c(c3)OCCO4)sc2c1 [CBK287572]	103%
Cc1cc(NC(=O)c2ccc(OC(C)C)cc2)no1 [CBK287575]	94.4%

Structure (SMILES)	viability at 28.5 h, 10 µM
Cc1cc(C)cc(NC(=O)CSc2ncccn2)c1 [CBK287577]	97.8%
COc1cc(C)ccc1S(=O)(=O)n1cnc2cc(C)c(C)cc21 [CBK287580]	61.3%
C=C(C)Cn1c(-c2ccc(N)cc2)nc2ccccc21 [CBK287581]	89.2%
N#Cc1c(NC(=O)c2cccnc2)sc2c1CCCCC2 [CBK287584]	98.6%
O=C(CC1Sc2ccccc2NC1=O)Nc1ccc(C(F)(F)F)cc1 (centres unmarked) [CBK287585]	88.6%
COc1ccc(C(=O)Nc2nc(-c3ccc4c(c3)OCCO4)cs2)cc1OC [CBK287588]	92.5%
COc1cccc(-c2nnc(NC(=O)c3ccc4c(c3)OCCO4)o2)c1 [CBK287591]	108%
CC(C)C(=O)Nc1nnc(-c2ccc(Cl)cc2)o1 [CBK287593]	94%
O=C(Nc1nnc(-c2ccccc2)o1)c1nc2ccccc2s1 [CBK287595]	91.2%
O=C(Nc1nnc(-c2ccccc2)o1)C1COc2ccccc2O1 (centres unmarked) [CBK287596]	103%
O=C(Cc1ccccc1)Nc1nnc(-c2ccccc2)o1 [CBK287597]	95.4%
O=C(Nc1nnc(-c2cccs2)o1)c1ccc(Cl)cc1 [CBK287600]	96.4%
Cc1ccc(Cn2ncc3c(N4CCCC4)ncnc32)cc1 [CBK287601]	72.5%
CC(=O)Nc1nc2ccc(S(=O)(=O)N3CCCC3)cc2s1 [CBK287604]	98.8%
CCn1c(=N)c(C(=O)NCCOC)cc2c(=O)n3ccccc3nc21 [CBK287605]	89.5%
CCCSc1nc2c(c(=O)[nH]1)C(c1ccncc1)C1=C(CCCC1=O)N2 (centres unmarked) [CBK287606]	106%
Cn1c(SCC(=O)NCCCN2CCOCC2)nc2ccccc2c1=O [CBK287607]	109%
Nc1ccc(C(=O)Nc2nc3ccccc3s2)cc1 [CBK287608]	95.9%
Cc1c(C(=O)O)sc2nc(SCC(=O)NCc3ccccc3)[nH]c(=O)c12 [CBK287609]	94.2%
Oc1c(C(c2ccccc2)N2CCc3ccccc3C2)sc2ncnn12 (centres unmarked) [CBK287612]	99.9%
CCSc1nc(N)c(NC(=O)c2ccco2)c(=O)[nH]1 [CBK287613]	92.4%
COc1ccc(C(=O)Nc2nc3c(OC)ccc(C)c3s2)cc1 [CBK287615]	110%
CCC(=O)Nc1nc2c(OC)ccc(C)c2s1 [CBK287616]	110%
